Values quoted from earlier work in paper PMC10112232, “Comparison of Toxicities among Different Bumped Kinase Inhibitor Analogs for Treatment of Cryptosporidiosis” (Antimicrobial Agents and Chemotherapy, 2023).

Parameters: method as in PMID 30830766
Conditions: mice; cited from earlier work

Structure (SMILES): CCOc1ccc2cc(-c3nn(C(C)(C)CCO)c(N)c3C(N)=O)ccc2c1 [BKI-1770]
- blood chemistry and histology vs control animals: no apparent abnormalities
